Source: patent US6677336B2, “Substituted piperazine compounds” (CV Therapeutics, Inc., priority 2000, dated 2004)

Assays:
[1] = Metabolic stability in human liver S-9 fractions; conditions: human liver S9, 30 min at 37 C; for Liver S9 Parent Present relative to Ranolazine: 10 μM, % parent remaining divided by average % ranolazine remaining (57%)
Protocol: After, 30 minutes at 37 C, the amount of parent drug remaining was determined using LC-mass spec. The response factors for each compound was determined by establishing a standard curve and using an internal standard during the analysis of the samples. […] The compounds of this invention were assayed as described in the protocol below and the percentage of parent remaining was divided by the average % of ranolazine remaining (57%) affording a metabolic stability factor.
The purpose of this experiment is to compare the percentages remaining for compounds of this invention with the percentage remaining for ranolazine after 30 minutes of incubation with human liver S9 fractions.
The following reagents were used; Potassium phosphate, 0.5M pH 7.4 (incubation buffer), kept at room temperature; 0.05M MgCl2 kept at 4° C.; P-Nicotinamide adenine dinucleotide phosphate, tetrasodium salt, reduced form (NADPH), 0.02M solution in water (˜16.6mg/mL) from Sigma Lot #79H7044 prepared on day of use. 1 mM of ranolazine or Compounds 43, 45, 47, 52, 70, 74, 76, 78, and 80 in ACN further diluted to obtain 100 μM in 10% ACN; Human S9 stock: 20 mg/mL from Gentest.
Incubation mixtures were prepared as follows:
Combine all components with incubation buffer and re-pipette 200 μL/tube+25 μL of the compound being tested along with 25 μL of S-9.
After 5 min of pre-incubation at 37° C., at 0 and 30 min after starting the reaction, a 50 μl aliquot of the incubation mixture was removed and added to 100 μL of 9:1 acetonitrile: methanol containing the internal standard.
The mixture was centrifuged and a 100 μL aliquot of the supernatant was diluted in 1 mL of solvent C (0.1% Formic Acid in water). Then samples were analyzed for change between the ratio of compound to internal standard at time zero and 30 minutes by LC/MS (injected 10 EL).
Samples were analyzed for the starting compounds and potential metabolite/s by LC/MS using an internal standard and an ODS-C18 column with a flow rate of 0.25 ml/min.

[2] = test system: mitochondrial fatty acid oxidation (rat heart mitochondria); test: Palmitoyl CoA oxidation in isolated rat heart mitochondria; format: biochemical; conditions: 15 min at 30° C, DMSO control
Protocol: Compounds of this invention were evaluated in a rat heart mitochondiral assay as set forth below.
(§1) Rat heart mitochondria were isolated by the method of Nedergard and Cannon (methods in Enzymol. 55, 3, 1979).
Palmitoyl CoA oxidation—The Palmityl CoA oxidation was carried out in a total volume of 100 micro liters containing the following agents: 110 mM KCl, 33 mM Tris buffer at pH 8, 2 mM KPi, 2 mM MgCl2, 0.1 mM EDTA, 14.7 microM defatted BSA, 0.5 mM malic acid, 13 mM carnitine, 1 mM ADP, 52 micrograms of mitochondrial protein, and 16 microM 1-C14 palmitoyl CoA (Sp. Activity 60 mCi/mmole; 20 microCi/ml, using 5 microliters per assay). The compounds of this invention were added in a DMSO solution at the following concentrations: 100 microM, 30 microM, and 3 microM. In each assay, a DMSO control was used. After 15 min at 30° C., the enzymatic reaction was centrifuged (20,000 g for 1 min), and 70 microliters of the supernatant was added to an activated reverse phase silicic acid column (approximately 0.5 ml of silicic acid). The column was eluted with 2 ml of water, and 0.5 ml of the eluent was used for scintillation counting to determine the amount of C^14 trapped as C^14 bicarbonate ion.

[3] = test system: mitochondrial fatty acid oxidation (rat heart mitochondria); test: Palmitoyl carnitine oxidation in isolated rat heart mitochondria; format: biochemical; conditions: 15 min at 30° C, DMSO control
Protocol: as §1
The Palmitoyl carnitine oxidation was carried out in a total volume of 100 microliters containing the following agents: 110 mM KCl, 33 mM Tris buffer at pH 8, 2 mM KPi, 2 mM MgCl2, 0.1 mM EDTA, 0.1 mg/ml of defatted BSA, 0.5 mM malic acid, 3 mM ADP, 52 micrograms of mitochondrial protein, and 43 microM 1-C14 palmitoyl carnitine (Sp. Activity 60 mCi/mmole; 20 microCi/ml, using 5 microliters per assay). The compounds of this invention were added in a DMSO solution at the following concentrations: 100 microM, 30 microM, and 3 microM. In each assay, a DMSO control was used. After 15 min at 30° C., the enzymatic reaction was centrifuged (20,000 g for 1 min), and 70 microliters of the supernatant was added to an activated reverse phase silicic acid column (approximately 0.5 ml of silicic acid). The column was eluted with 2 ml of water, and 0.5 ml of the eluent was used for scintillation counting to determine the amount of C^14 trapped as C^14 bicarbonate ion. The data are presented as % activity of control in Table 3, below.

Row | Structure (SMILES) | Inhibition of mitochondrial fatty acid oxidation using palmitoyl CoA as substrate - % of Control ([2]; 30 μM compound) | Inhibition of mitochondrial fatty acid oxidation using palmitoyl CoA as substrate - % of Control ([2]; 100 μM compound) | Inhibition of mitochondrial fatty acid oxidation using palmitoyl carnitine as substrate - % of Control ([3]; 100 μM compound) | other results
1 | COc1ccccc1OCC(O)CN1CCN(CC(=O)Nc2c(C)cccc2C)CC1 (racemic) [Ranolazine, (±)-N-(2,6-dimethylphenyl)-4-[2-hydroxy-3-(2-methoxyphenoxy)-propyl]-1-piperazineacetamide, reference compound] | 90% | 75% | 63% | Liver S9 Parent Present relative to Ranolazine [1]: 1.0; percentage of parent drug remaining at the 30 minute time point ([1]; average of five experiments): 57%; Inhibition of mitochondrial fatty acid oxidation using palmitoyl carnitine as substrate - % of Control ([3]; 30 μM compound): 98%
2 | COc1ccccc1OCC(O)CN1C(C)CN(CC(=O)Nc2c(C)cccc2C)CC1C (stereo not shown) [Compound 7, N-(2,6-dimethylphenyl)-2-{4-[2-hydroxy-3-(2-methoxy)propyl]-3,5-dimethylpiperazinyl}acetamide] | 98% | 85% | 95% | Inhibition of mitochondrial fatty acid oxidation using palmitoyl CoA as substrate - % of Control ([2]; 3 μM compound): 107%; Inhibition of mitochondrial fatty acid oxidation using palmitoyl carnitine as substrate - % of Control ([3]; 3 μM compound): 109%; Inhibition of mitochondrial fatty acid oxidation using palmitoyl carnitine as substrate - % of Control ([3]; 30 μM compound): 102%
3 | COc1ccccc1OCC(O)CN1C[C@@H](C)N(CC(=O)Nc2c(C)cccc2C)C[C@@H]1C (stereo partly drawn) [Compound 15, 2-{(5S,2R)-4-[2-hydroxy-3-(2-methoxyphenoxy)propyl]-2,5-dimethylpiperazinyl}-N-(2,6-dimethylphenyl)acetamide] | 97% | 78% | 82% | Liver S9 Parent Present relative to Ranolazine [1]: 1.20; Inhibition of mitochondrial fatty acid oxidation using palmitoyl CoA as substrate - % of Control ([2]; 3 μM compound): 103%; Inhibition of mitochondrial fatty acid oxidation using palmitoyl carnitine as substrate - % of Control ([3]; 3 μM compound): 106%; Inhibition of mitochondrial fatty acid oxidation using palmitoyl carnitine as substrate - % of Control ([3]; 30 μM compound): 98%
4 | COc1ccccc1OCC(O)CN1CCN(CC(=O)Nc2c(C)cccc2C)C(=O)C1 (stereo not shown) [Compound 16, N-(2,6-dimethylphenyl)-2-{4-[2-hydroxy-3-(2-methoxyphenoxy)propyl]-2-oxopiperazinyl}acetamide] | 96% | 100% | 64% | Liver S9 Parent Present relative to Ranolazine [1]: 0.15
5 | COc1ccccc1OCC(O)CN1CCN(CC(=O)Nc2c(C)cccc2C)C2CCCCC21 (stereo not shown) [Compound 17] | 98% | 89% | 80% | Liver S9 Parent Present relative to Ranolazine [1]: 0.45; Inhibition of mitochondrial fatty acid oxidation using palmitoyl CoA as substrate - % of Control ([2]; 3 μM compound): 100%; Inhibition of mitochondrial fatty acid oxidation using palmitoyl carnitine as substrate - % of Control ([3]; 3 μM compound): 103%; Inhibition of mitochondrial fatty acid oxidation using palmitoyl carnitine as substrate - % of Control ([3]; 30 μM compound): 88%
6 | COc1ccccc1OCC(O)CN1CCN(CC(=O)Nc2c(C)cccc2C)CC1(C)C (stereo not shown) [Compound 18, N-(2,6-dimethylphenyl)-2-{4-[2-hydroxy-3-(2-methoxyphenoxy)propyl]-3,3-dimethylpiperazinyl}acetamide] |  | 80% | 17% | 
7 | Cc1cccc(C)c1NC(=O)CN1CCN(CC(O)CCOc2ccc(C(C)(C)C)cc2)CC1 (stereo not shown) [Compound 22] |  | 16% | 25% | 
8 | C[C@H]1CN(CC(=O)Nc2ccc(C(F)(F)F)cc2)CCN1C[C@H](O)COc1ccccc1F [Compound 54, 2-{(3S)-4-[(2S)-3-(2-fluorophenoxy)-2-hydroxypropyl]-3-methylpiperazinyl}-N-[4-(trifluoromethyl)phenyl]acetamide] |  | 75% |  | 
9 | C[C@H]1CN(CC(=O)Nc2ccc(Cl)c(C(F)(F)F)c2)CCN1C[C@H](O)COc1ccccc1F [Compound 55, 2-{(3S)-4-[(2S)-3-(2-fluorophenoxy)-2-hydroxypropyl]-3-methylpiperazinyl}-N-[4-chloro-3-(trifluoromethyl)phenyl]acetamide] |  | 11% |  | 
10 | COc1cc(NC(=O)CN2CCN(C[C@H](O)COc3ccccc3F)[C@@H](C)C2)cc(OC)c1 [Compound 56, 2-{(3S)-4-[(2S)-3-(2-fluorophenoxy)-2-hydroxypropyl]-3-methylpiperazinyl}-N-(3,5-dimethoxyphenyl)acetamide] |  | 83% |  | 
11 | C[C@H]1CN(CC(=O)Nc2ccc(N3CCOCC3)cc2)CCN1C[C@H](O)COc1ccccc1F [Compound 57, 2-{(3S)-4-[(2S)-3-(2-fluorophenoxy)-2-hydroxypropyl]-3-methylpiperazinyl}-N-(4-morpholin-4-ylphenyl)acetamide] |  | 73% |  | 
12 | COc1ccc(NC(=O)CN2CCN(C[C@H](O)COc3ccccc3F)[C@@H](C)C2)cc1F [Compound 58, 2-{(3S)-4-[(2S)-3-(2-fluorophenoxy)-2-hydroxypropyl]-3-methylpiperazinyl}-N-(3-fluoro-4-methoxyphenyl)acetamide] |  | 81% |  | 
13 | COc1cc(NC(=O)CN2CCN(C[C@H](O)COc3ccccc3F)[C@@H](C)C2)cc(OC)c1OC [Compound 59, 2-{(3S)-4-[(2S)-3-(2-fluorophenoxy)-2-hydroxypropyl]-3-methylpiperazinyl}-N-(3,4,5-trimethoxyphenyl)acetamide] |  | 76% |  | 
14 | COc1ccc(NC(=O)CN2CCN(C[C@H](O)COc3ccccc3F)[C@@H](C)C2)cc1OC [Compound 60, 2-{(3S)-4-[(2S)-3-(2-fluorophenoxy)-2-hydroxypropyl]-3-methylpiperazinyl}-N-(3,4-dimethoxyphenyl)acetamide] |  | 81% |  | 
15 | C[C@H]1CN(CC(=O)Nc2ccc(Cl)cc2F)CCN1C[C@H](O)COc1ccccc1F [Compound 61, 2-{(3S)-4-[(2S)-3-(2-fluorophenoxy)-2-hydroxypropyl]-3-methylpiperazinyl}-N-(4-chloro-2-fluorophenyl)acetamide] |  | 65% |  | 
16 | Cc1cccc(CO)c1NC(=O)CN1CCN(C[C@H](O)COc2ccccc2F)[C@@H](C)C1 [Compound 62] |  | 66% |  | 
